Tests used:
[1] = target: T1, SMARCA2-HiBiT HeLa cells (protein which is expressed from the SMARCA2 gene) (Homo sapiens, UniProt P51531); assay: SMARCA2 degradation assay (HiBiT-fusion HeLa cell line, 24 h, luminescence); format: cell-based
T1 construct: protein which is expressed from the SMARCA2 and SMARCA4 genes; host or cells: HeLa (SMARCA2-HiBiT engineered line)
How it was run: (§1)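 In this 24-hour cellular degradation readout, HiBiT-tagged HeLa lines received compound at up to typically 10 μM down to 300 pM in 10 points. After lysis with LgBiT and substrate, luminescence signals were used to build dose-response curves for DC50.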

[2] = target: T2, SMARCA4-HiBiT HeLa cells (protein which is expressed from the SMARCA4 gene) (Homo sapiens, UniProt P51532); assay: SMARCA4 degradation assay (HiBiT-fusion HeLa cell line, 24 h, luminescence); format: cell-based
T2 construct: protein which is expressed from the SMARCA2 and SMARCA4 genes; host or cells: HeLa (SMARCA4-HiBiT engineered line)
How it was run: as §1

T2 sequence (P51532 whole entry, the tested form may be a part): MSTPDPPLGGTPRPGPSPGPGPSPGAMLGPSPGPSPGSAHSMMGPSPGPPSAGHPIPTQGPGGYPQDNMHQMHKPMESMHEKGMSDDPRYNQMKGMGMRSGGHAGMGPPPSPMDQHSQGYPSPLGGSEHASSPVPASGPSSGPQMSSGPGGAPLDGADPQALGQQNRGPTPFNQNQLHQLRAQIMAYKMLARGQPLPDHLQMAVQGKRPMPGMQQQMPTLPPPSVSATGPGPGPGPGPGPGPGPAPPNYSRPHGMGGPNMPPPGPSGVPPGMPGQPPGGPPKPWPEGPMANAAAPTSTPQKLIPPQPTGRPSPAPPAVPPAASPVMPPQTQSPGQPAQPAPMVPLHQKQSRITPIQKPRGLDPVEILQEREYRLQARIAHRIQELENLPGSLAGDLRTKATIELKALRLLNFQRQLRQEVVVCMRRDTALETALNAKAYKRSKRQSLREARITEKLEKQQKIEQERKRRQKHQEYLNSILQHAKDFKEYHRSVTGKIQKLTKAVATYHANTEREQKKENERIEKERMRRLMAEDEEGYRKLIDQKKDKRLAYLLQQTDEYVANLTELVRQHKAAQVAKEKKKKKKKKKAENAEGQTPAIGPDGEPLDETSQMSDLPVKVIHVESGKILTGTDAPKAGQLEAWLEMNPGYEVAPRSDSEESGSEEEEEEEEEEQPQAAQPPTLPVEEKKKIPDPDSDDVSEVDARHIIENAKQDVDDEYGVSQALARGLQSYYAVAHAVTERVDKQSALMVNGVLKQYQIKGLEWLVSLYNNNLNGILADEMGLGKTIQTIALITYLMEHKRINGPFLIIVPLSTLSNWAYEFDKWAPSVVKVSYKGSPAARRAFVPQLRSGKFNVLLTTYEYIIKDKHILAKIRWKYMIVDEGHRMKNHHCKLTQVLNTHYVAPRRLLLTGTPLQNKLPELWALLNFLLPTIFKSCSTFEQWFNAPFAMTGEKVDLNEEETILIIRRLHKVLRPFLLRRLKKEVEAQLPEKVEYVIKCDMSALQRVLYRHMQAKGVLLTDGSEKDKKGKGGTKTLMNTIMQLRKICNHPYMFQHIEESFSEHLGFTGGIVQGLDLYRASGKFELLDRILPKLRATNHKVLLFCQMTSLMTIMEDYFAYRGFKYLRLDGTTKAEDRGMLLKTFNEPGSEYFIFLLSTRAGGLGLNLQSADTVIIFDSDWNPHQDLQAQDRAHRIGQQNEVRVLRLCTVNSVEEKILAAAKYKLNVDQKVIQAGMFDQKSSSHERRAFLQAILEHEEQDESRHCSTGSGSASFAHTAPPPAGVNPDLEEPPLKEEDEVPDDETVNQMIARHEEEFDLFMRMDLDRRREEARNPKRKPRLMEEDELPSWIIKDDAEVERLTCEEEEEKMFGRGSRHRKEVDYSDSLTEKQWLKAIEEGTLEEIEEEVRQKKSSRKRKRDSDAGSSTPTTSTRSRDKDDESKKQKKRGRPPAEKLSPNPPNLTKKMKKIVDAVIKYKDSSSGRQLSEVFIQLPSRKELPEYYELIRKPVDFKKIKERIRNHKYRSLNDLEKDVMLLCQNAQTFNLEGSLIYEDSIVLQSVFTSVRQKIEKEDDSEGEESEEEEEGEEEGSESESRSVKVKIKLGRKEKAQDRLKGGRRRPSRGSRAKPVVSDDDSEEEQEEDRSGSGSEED
T1 sequence (P51531 whole entry, the tested form may be a part): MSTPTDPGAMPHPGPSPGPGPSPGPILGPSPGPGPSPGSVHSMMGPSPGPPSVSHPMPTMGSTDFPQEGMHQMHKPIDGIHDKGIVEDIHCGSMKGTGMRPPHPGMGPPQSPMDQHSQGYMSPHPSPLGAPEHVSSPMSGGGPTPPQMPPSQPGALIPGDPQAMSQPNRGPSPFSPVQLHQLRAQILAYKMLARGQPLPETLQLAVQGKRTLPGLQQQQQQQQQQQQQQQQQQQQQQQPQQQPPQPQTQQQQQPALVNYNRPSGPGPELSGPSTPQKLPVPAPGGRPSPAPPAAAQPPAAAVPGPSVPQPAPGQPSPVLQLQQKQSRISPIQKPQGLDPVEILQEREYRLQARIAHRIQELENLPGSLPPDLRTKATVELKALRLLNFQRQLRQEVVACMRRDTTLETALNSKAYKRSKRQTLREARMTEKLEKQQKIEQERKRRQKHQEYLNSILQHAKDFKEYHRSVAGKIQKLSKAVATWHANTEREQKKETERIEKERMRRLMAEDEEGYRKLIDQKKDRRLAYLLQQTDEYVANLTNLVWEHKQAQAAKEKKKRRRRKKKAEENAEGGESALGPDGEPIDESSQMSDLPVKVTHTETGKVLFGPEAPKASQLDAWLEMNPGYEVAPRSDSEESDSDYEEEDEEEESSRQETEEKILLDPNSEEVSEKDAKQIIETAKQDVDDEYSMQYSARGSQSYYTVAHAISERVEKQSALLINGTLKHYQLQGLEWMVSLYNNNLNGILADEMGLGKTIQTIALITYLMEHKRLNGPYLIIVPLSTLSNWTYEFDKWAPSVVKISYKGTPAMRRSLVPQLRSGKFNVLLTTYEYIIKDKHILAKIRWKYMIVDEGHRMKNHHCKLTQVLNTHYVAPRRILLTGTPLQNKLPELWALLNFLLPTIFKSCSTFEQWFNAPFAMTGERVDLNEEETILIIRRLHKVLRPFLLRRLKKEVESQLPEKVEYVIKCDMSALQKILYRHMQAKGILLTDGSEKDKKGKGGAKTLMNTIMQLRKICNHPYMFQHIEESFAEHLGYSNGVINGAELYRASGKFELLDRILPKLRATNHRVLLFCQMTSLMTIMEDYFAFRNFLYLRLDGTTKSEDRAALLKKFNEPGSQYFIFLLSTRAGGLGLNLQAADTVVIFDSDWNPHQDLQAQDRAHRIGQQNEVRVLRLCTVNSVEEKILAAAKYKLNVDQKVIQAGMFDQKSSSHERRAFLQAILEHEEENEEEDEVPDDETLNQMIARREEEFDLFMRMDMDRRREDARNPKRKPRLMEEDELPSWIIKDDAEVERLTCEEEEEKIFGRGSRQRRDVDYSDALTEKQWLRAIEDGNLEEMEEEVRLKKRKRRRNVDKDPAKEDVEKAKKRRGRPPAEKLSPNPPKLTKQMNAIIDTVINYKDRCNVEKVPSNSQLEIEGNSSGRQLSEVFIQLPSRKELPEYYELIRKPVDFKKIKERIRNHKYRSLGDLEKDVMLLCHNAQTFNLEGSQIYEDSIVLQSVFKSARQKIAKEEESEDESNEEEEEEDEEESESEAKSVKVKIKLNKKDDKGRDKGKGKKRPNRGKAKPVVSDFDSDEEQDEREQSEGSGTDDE

Row | SMILES | DC50 [1] [nM] | SMARCA2 % Degradation @ 1 μM ([1]; @ 1 μM) | DC50 [2] [nM] | inhibition at 1 µM ([2]; @ 1 μM) [%] | SMARCA2 % Degradation @ 1 μM ([1]; 1 μM) | inhibition at 1 µM ([2]; 1 μM) [%] | SMARCA4 % Degradation @ 1 μM ([2]; @ 1 μM)
1 | CNCC#Cc1nccc(N2CCN(c3cc(-c4ccccc4O)nnc3N)CC2)n1 [Compound P-294, 0-[6-amino-5-(4-{2-[3-(methylamino)-1-propynyl]-4-pyrimidinyl}-1-piperazinyl)-3-pyridazinyl]phenol] | < 50 | ++ (++=30-70%) | < 50 | < 30 | – | – | –
2 | Nc1nnc(-c2ccccc2O)cc1N1CCN(c2ccnc(C#CCNC(=O)c3cnn4cccc(F)c34)n2)CC1 [Compound P-117, N-(3-(4-(4-(3-amino-6-(2-hydroxyphenyl)pyridazin-4-yl)piperazin-1-yl)pyrimidin-2-yl)prop-2-yn-1-yl)-4-fluoropyrazolo[1,5-a]pyridine-3-carboxamide] | 50 to 500 | ++ (++=30-70%) | 50 to 500 | 30 to 70 | – | – | –
3 | C[C@@H]1CCN(c2cc(-c3ccccc3O)nnc2N)CCN1c1ccnc(C#CCNc2ccn(C)n2)n1 [Compound P-331, 0-{5-[(R)-5-methyl-4-{2-[3-(1-methyl-3-pyrazolylamino)-1-propynyl]-4-pyrimidinyl}-1,4-diazepan-1-yl]-6-amino-3-pyridazinyl}phenol] | 50 to 500 | ++ (++=30-70%) | 50 to 500 | < 30 | – | – | –
4 | CC(C)(C)OC(=O)N1CCN(CC#Cc2nccc(N3CCCN(c4cc(-c5ccccc5O)nnc4N)CC3)n2)CC1 [Compound P-143, tert-butyl 4-(3-(4-(4-(3-amino-6-(2-hydroxyphenyl)pyridazin-4-yl)-1,4-diazepan-1-yl)pyrimidin-2-yl)prop-2-yn-1-yl)piperazine-1-carboxylate] | 50 to 500 | +++ (+++=>70%) | 50 to 500 | 30 to 70 | – | – | –
5 | Nc1nnc(-c2ccccc2O)cc1N1CCCN(c2ccnc(C#Cc3cnc4cnccn34)n2)CC1 [Compound P-135, 2-(6-amino-5-(4-(2-(imidazo[1,2-a]pyrazin-3-ylethynyl)pyrimidin-4-yl)-1,4-diazepan-1-yl)pyridazin-3-yl)phenol] | 50 to 500 | ++ (++=30-70%) | 50 to 500 | 30 to 70 | – | – | –
6 | Nc1nnc(-c2ccccc2O)cc1-c1cnn(C2CN(c3ccnc(C#CCn4ccnc4)n3)C2)c1 [Compound P-212, o-{6-amino-5-[1-(1-{2-[3-(1-imidazolyl)-1-propynyl]-4-pyrimidinyl}-3-azetidinyl)-4-pyrazolyl]-3-pyridazinyl} phenol] | 50 to 500 | ++ (++=30-70%) | 50 to 500 | 30 to 70 | – | – | –
7 | C[C@H]1CN(c2ccnc(C#CCNC(=O)c3cc4ncccn4n3)n2)C[C@H](C)N1c1cc(-c2ccccc2O)nnc1N [Compound P-16, N-(3-(4-((3S,5S)-4-(3-amino-6-(2-hydroxyphenyl)pyridazin-4-y1)-3,5-dimethylpiperazin-1-yl)pyrimidin-2-yl)prop-2-yn-1-yl)pyrazolo[1,5-a]pyrimidine-2-carboxamide] | 500 to 5000 | + (+=<30%) | 500 to 5000 | < 30 | – | – | –
8 | Nc1nnc(-c2ccccc2O)cc1N1CCN(c2ccnc(C#CCNC(=O)c3ccn(C(F)F)n3)n2)CC1 [Compound P-10, N-[3-(4-{4-[3-amino-6-(2-hydroxyphenyl)pyridazin-4-yl]piperazin-1-yl}pyrimidin-2-yl)prop-2-yn-1-y1]-1-(difluoromethyl)-1H-pyrazole-3-carboxamide] | 50 to 500 | ++ (++=30-70%) | < 50 | 30 to 70 | – | – | –
9 | C[C@@H]1CCN(c2cc(-c3ccccc3O)nnc2N)CCN1c1ccnc(C#CCN2CCC(F)(F)C2)n1 [Compound P-243, o-{5-[(R)-4-{2-[3-(3,3-difluoro-1-pyrrolidinyl)-1-propynyl]-4-pyrimidinyl}-5-methyl-1,4-diazepan-1-yl]-6-amino-3-pyridazinyl} phenol] | 50 to 500 | ++ (++=30-70%) | 50 to 500 | 30 to 70 | – | – | –
10 | Cc1cc(C(=O)NCC#Cc2nccc(N3CCN(c4cc(-c5ccccc5O)nnc4N)CC3)n2)no1 [Compound P-1, N-[3-(4-{4-[3-amino-6-(2-hydroxyphenyl)pyridazin-4-yl]piperazin-1-yl}pyrimidin-2-yl)prop-2-yn-1-yl]-5-methyl-1,2-oxazole-3-carboxamide] | 50 to 500 | ++ (++=30-70%) | 50 to 500 | 30 to 70 | – | – | –
11 | C[C@@H]1CCN(c2cc(-c3ccccc3O)nnc2N)CCN1c1ccnc(C#CCN2[C@H](C)COC[C@@H]2C)n1 [Compound P-260, o-{5-[(R)-4-(2-{3-[(3R,5S)-3,5-dimethyl-4-morpholiny1]-1-propynyl}-4-pyrimidinyl)-5-methyl-1,4-diazepan-1-yl]-6-amino-3-pyridaziny1}phenol] | < 50 | ++ (++=30-70%) | 50 to 500 | < 30 | – | – | –

Results, then the compound that gave them:

Row | DC50 [1] [nM] | SMARCA2 % Degradation @ 1 μM ([1]; @ 1 μM) | DC50 [2] [nM] | inhibition at 1 µM ([2]; @ 1 μM) [%] | SMARCA2 % Degradation @ 1 μM ([1]; 1 μM) | inhibition at 1 µM ([2]; 1 μM) [%] | SMARCA4 % Degradation @ 1 μM ([2]; @ 1 μM) | SMILES
12 | < 50 | – | < 50 | – | +++ (+++=>70%) | 30 to 70 | – | C[C@@H]1CCN(c2cc(-c3ccccc3O)nnc2N)CCN1c1ccnc(C#CCN(C)C)c1 [Compound P-427, 0-{5-[(R)-4-{2-[3-(dimethylamino)-1-propynyl]-4-pyridyl}-5-methyl-1,4-diazepan-1-yl]-6-amino-3-pyridazinyl}phenol]
13 | 50 to 500 | ++ (++=30-70%) | 50 to 500 | – | – | – | ++ (++=30-70%) | CC(C)(C)OC(=O)NC1CCN(CC#Cc2nccc(N3C4CCC3CN(c3cnnc(-c5ccccc5O)c3)C4)n2)CC1 [Compound P-368, tert-butyl-1-[3-(4-{3-[6-(o-hydroxyphenyl)-4-pyridazinyl]-3,8-diazabicyclo[3.2.1]oct-8-y1}-2-pyrimidinyl)-2-propynyl]-4-piperidylaminoformylate]
14 | 50 to 500 | +++ (+++=>70%) | 50 to 500 | 30 to 70 | – | – | – | CC(C)(C)OC(=O)N1CC(C#Cc2nccc(N3CCCN(c4cc(-c5ccccc5O)nnc4N)CC3)n2)C1 [Compound P-371, tert-butyl 3-[2-(4-{4-[3-amino-6-(o-hydroxyphenyl)-4-pyridaziny1]-1,4-diazepan-1-yl}-2-pyrimidinyl)ethynyl]-1-azetidinecarboxylate]
15 | 50 to 500 | – | 500 to 5000 | – | ++ (++=30-70%) | 30 to 70 | – | C[C@@H]1CCN(c2cc(-c3ccccc3O)nnc2N)CCN1c1ccnc(C#CCO)c1 [Compound P-397, 0-(5-{(R)-4-[2-(3-hydroxy-1-propynyl)-4-pyridyl]-5-methyl-1,4-diazepan-1-yl}-6-amino-3-pyridazinyl)phenol]
16 | > 5000 | – | > 5000 | – | – | – | – | C[C@@H]1CCN(c2cnnc(-c3ccccc3O)c2)CCN1c1ccc(C#N)c(C#CCNC(=O)c2cc3ncccn3n2)n1 [Compound P-410, N-[3-(6-{(R)-4-[6-(0-hydroxyphenyl)-4-pyridazinyl]-7-methyl-1,4-diazepan-1-yl}-3-cyano-2-pyridyl)-2-propynyl]-1,4,7a-triaza-2-indenecarboxamide]
